Results as given in PubChem BioAssay (NCI).
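Method: 48-hour compound exposure of cells in 96-well plates, five concentrations, linear interpolation of endpoints. At the GI50, growth is halved. At the TGI there is no net growth.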 *1 amine or outer side, *2 acyl side, *3 side chain or, on linkers, in order; H or OH if unused. Where a SMILES comes first, the peptide text is derived from it. [ ]: non-standard residue; d: D form. X56 = CC[C@H](C)[C@H](OC(=O)[C@@H](C)[C@@H](CC)N[*:1])C(=O)[*:2]; X32 = C[C@H](N[*:1])C(=O)C(C)(C)C(=O)[*:2]; NMeY = CN[C@@H](Cc1ccc(O)cc1)C(=O)O; NMeL = CN[C@@H](CC(C)C)C(=O)O; NMeV = CN[C@H](C(=O)O)C(C)C

Key:
Assay in all cases: NCI-60 cell line screen, 48 h
DLD-1 colon = system: DLD-1 colon
SNB-78 CNS = system: SNB-78 CNS
LXFL 529 NSCLC = system: LXFL 529 NSCLC
HOP-18 NSCLC = system: HOP-18 NSCLC
DMS 114 small cell lung = system: DMS 114 small cell lung
RXF-631 renal = system: RXF-631 renal
DMS 273 small cell lung = system: DMS 273 small cell lung
XF 498 CNS = system: XF 498 CNS
MDA-N = system: MDA-N

Structure (SMILES) | TGI (DLD-1 colon) [µM] | TGI (SNB-78 CNS) [µM] | TGI (LXFL 529 NSCLC) [µM] | TGI (HOP-18 NSCLC) [µM] | TGI (DMS 114 small cell lung) [µM] | TGI (RXF-631 renal) [µM] | TGI (DMS 273 small cell lung) [µM] | TGI (XF 498 CNS) [µM] | TGI (MDA-N) [µM] | other results
COc1ccc(-c2c(N)[n+]([O-])c3ccccc3[n+]2[O-])cc1OC | > 100 | > 100 | > 100 | > 100 | > 100 | > 100 | > 100 |  |  | 
Cc1c2c(cc3c(=O)ccn(CCN(C)C)c13)c(=O)ccn2CCN(C)C | 28.7 | > 100 | 19.8 | 58.6 | 30.1 |  | 16.3 | 22.9 |  | 
S=c1nc(N2CCCCC2)ss1 | > 100 | 99.1 | 54.2 | 88.4 | 42.4 | 79.4 | 42.3 | 44.7 |  | 
CC(=O)/C=C/c1ccc(C)cc1 | > 100 | > 100 | > 100 | > 100 | > 100 |  | > 100 |  |  | 
Cc1cc(N(CCCl)CCCl)ccc1/C=N/NC(=O)Cc1cc(=O)oc2cc(O)ccc12 |  |  |  |  |  |  |  |  | 32.4 | 
NNC(=O)/C(NC(=O)c1ccccc1)=C(\N)c1ccc(Cl)cc1 | > 100 | > 100 | > 100 | > 100 | > 100 |  | > 100 |  |  | 
CC[C@H](C)[C@@H]1OC(=O)[C@@H](C)[C@@H](CC)NC(=O)[C@H](C)NC(=O)C(C)(C)C(=O)[C@H](C)NC(=O)[C@H](Cc2ccc(OC)cc2)N(C)C(=O)[C@H](C(C)C)N(C)C(=O)CNC(=O)[C@H](CC(C)C)N(C)C(=O)CNC1=O (cyclo(A[X56]G[NMeL]G[NMeV][NMeY](Me)[X32])) | 2.12 |  | 0.0823 | 0.0425 | 1.13 |  | 0.072 | 0.173 |  | 
C=CCn1cc(C(=O)NC(=O)NCCCCCOC(=O)CCCCCCCCCCC(=O)OCCCCCNC(=O)NC(=O)c2cn(CC=C)c(=O)n(C)c2=O)c(=O)n(C)c1=O | > 100 | > 100 | > 100 | > 100 | > 100 |  | > 100 | > 100 |  | 
COC(=O)C1C(OCc2ccccc2)C2CCC1(OC)C=C2C (stereo unspecified) | > 100 | > 100 | > 100 | > 100 | > 100 |  | > 83.9 | > 86.7 |  | 
Nc1ncnc2c1cnn2Cc1ccc(Cl)cc1 |  |  |  |  |  |  |  |  | > 100 | 
COc1cc(Nc2nc3ccc(C(F)(F)F)cc3nc2-c2ccccc2)cc(OC)c1OC | > 100 | > 100 | > 100 |  |  |  | > 100 |  |  | 
Cc1ccc2c(c1)CNc1ccc(C)cc1CN2 | > 100 | > 100 | > 100 | > 100 | > 100 |  | > 100 | > 100 |  | 
O=C(/C=C/c1ccccc1Cl)c1ccc(Cl)cc1Cl | 32.3 | 36.2 | 29.7 | 31.2 | 26.3 | 34.6 | 29.6 |  |  | 
C1=Nc2ccccc2C=Nc2ccccc2C=Nc2ccccc2C=Nc2ccccc21.[Cl-].[Pt+2] | 98.4 |  | 60 | > 100 | 46.2 | 77.9 | 55.5 | 51.1 |  | GI50 (DLD-1 colon): 17.8 µM; GI50 (LXFL 529 NSCLC): 10.3 µM; GI50 (HOP-18 NSCLC): 22.3 µM; GI50 (DMS 114 small cell lung): 12.1 µM; GI50 (RXF-631 renal): 30.9 µM; GI50 (DMS 273 small cell lung): 19 µM; GI50 (XF 498 CNS): 18.4 µM
N#CC1CC2(C(=O)C1=O)c1ccccc1-c1ccccc12 (stereo unspecified) | > 100 |  | > 100 | > 100 | > 100 |  | > 100 |  |  | 
c1ccc(COC2(OCc3ccccc3)CC3OC2C2NN=NC32)cc1 (stereo unspecified) | 31.3 | 86.3 | 29.3 | 92.9 |  |  | 53.4 | 35 |  | 
O=c1c2ccccc2nc(-c2cccc(Cl)c2)n1NCC1(O)OCC(O)C(O)C1O (stereo unspecified) |  | > 100 | > 100 |  | > 100 | > 100 | > 100 |  |  | 
COc1cc2c(c(OC)c1OC)-c1ccc(OC)c(=O)cc1[C@@H](N(C)C=O)CC2 | > 100 | > 100 | > 100 | > 100 |  | > 26.2 | > 100 | > 23 |  | 
C/C(=N\N=C(N)N)C(CN(C)C)C(c1ccccc1)c1c(O)c2ccccc2oc1=O (stereo unspecified) | > 100 | > 100 | > 100 | > 100 | > 100 |  | > 100 | > 100 | > 100 | 
Cc1c(N=Cc2ccc(N(CCC#N)CCC#N)cc2)c(=O)n(-c2ccccc2)n1C | > 100 | > 100 | > 100 | > 100 | > 100 |  | > 100 | > 80.6 | > 100 | 

Structure (SMILES) | TGI (DLD-1 colon) [µM] | TGI (SNB-78 CNS) [µM] | TGI (LXFL 529 NSCLC) [µM] | TGI (HOP-18 NSCLC) [µM] | TGI (DMS 114 small cell lung) [µM] | TGI (RXF-631 renal) [µM] | TGI (DMS 273 small cell lung) [µM] | TGI (XF 498 CNS) [µM] | TGI (MDA-N) [µM] | other results
N#CC1C2CCC3(CC2CCN1C(=O)c1ccccc1)OCCO3 (stereo unspecified) | > 100 | > 100 | > 100 | > 100 | > 100 |  | > 100 | > 100 |  | 
O=[N+]([O-])c1ccc(Cl)cc1N/N=C/c1cccc2cccnc12 |  |  |  |  |  |  |  |  | > 100 | 
C=C1C(=O)OC2CC(C)C3C=CC(=O)C3CC12 (stereo unspecified) |  | 19.2 | 2.67 | 16.9 | 6.22 | 13.7 | 12.2 | 3.4 | 5.73 | 
Cn1cnc([N+](=O)[O-])c1Sc1nnnn1-c1ccccc1 | 22.1 | 34.2 | 15.4 | 8.26 | 33 | 30.6 | 29 | 24.6 |  | 
N#C/C(=C\c1ccc(C(O)P(=O)(O)O)cc1)C(N)=O (stereo unspecified) | > 100 | > 100 | > 100 | > 100 | > 100 | > 100 | > 100 | > 100 |  | 
Nc1nc(-c2cccc([N+](=O)[O-])c2)cc(-c2cc(-c3cccc([N+](=O)[O-])c3)nc(N)n2)n1 |  |  |  |  |  |  |  |  | > 100 | 
CC1C(=O)O[C@H]2C1CC[C@@]1(C)[C@H](O)CC[C@@]13C[C@]2(O)OO3 (stereo partly specified) | > 100 |  | > 100 | > 100 | > 100 |  | > 100 |  |  | 
C1COCCOCCOCCOCCO1.CC(=O)[CH-]C(C)=O.CC(=O)[CH-]C(C)=O.CC(=O)[CH-]C(C)=O.[V] | > 100 |  | 41.2 | 77.9 | 82.1 |  | 34.8 |  |  | GI50 (DLD-1 colon): 28 µM; GI50 (LXFL 529 NSCLC): 20.7 µM; GI50 (HOP-18 NSCLC): 28.2 µM; GI50 (DMS 114 small cell lung): 28.3 µM; GI50 (DMS 273 small cell lung): 15.7 µM
COc1cc(/C=C(\OC(C)=O)c2ccc3c(c2)OCO3)cc(OC)c1OC | 60.6 | 91.9 | 34.9 | > 100 | 29 |  | 33.6 | 27.7 |  | 
Cc1ccc(Oc2ccc([N+](=O)[O-])cc2[N+](=O)[O-])c(C)c1 | > 100 | > 100 | > 100 |  | > 100 | > 100 | > 100 | > 100 |  | 
O=C(O)C1CCCCC1c1c2ccc(=O)cc-2oc2cc(O)ccc12 (stereo unspecified) |  |  |  |  |  |  |  |  | > 100 | 
CCOC(=O)/C(=C\c1ccc[nH]1)C(=O)c1ccccc1 | > 100 | > 100 | > 100 | > 100 | > 100 | > 100 | > 100 | > 100 |  | 
CC(C)C(=O)/C=C/c1ccc(Cl)c(Cl)c1 | 34.2 | > 100 | 40.2 | 23.5 | 42.3 |  |  | 25.1 |  | 
Cc1nc(C(N)=S)sc1C(=O)C/C(=N/N)C(=O)Nc1ccc(Cl)cc1 |  |  |  |  |  |  |  |  | > 100 | 
CCOC(=O)CSc1[nH]c(NC(=S)Nc2ccccc2)c(C(N)=O)c1C(N)=O |  |  |  |  |  |  |  |  | > 10 | 
Cc1cc(=O)oc2cc(OS(C)(=O)=O)ccc12 |  |  |  |  |  |  |  |  | > 100 | 
NC(CC1=CCC=CC1)C(=O)O (stereo unspecified) |  |  |  |  |  |  |  |  | > 100 | 
CSc1ncnc2c1CCN2 |  | > 100 | > 100 |  | > 100 |  |  |  | 8.6 | 
COc1ccc(/C=C/NC=O)cc1 |  |  |  |  |  |  |  |  | > 100 | 
CC1(O)CCC2(C#N)CCC1C2O (stereo unspecified) | > 100 | > 100 | > 100 | > 100 | 31.1 | > 100 | > 100 | > 100 |  | 
